The record followed here is patent US8012979B2, “Compounds and their uses 707” (AstraZeneca AB, priority 2007, dated 2011).

T1 sequence (Q16539 whole entry): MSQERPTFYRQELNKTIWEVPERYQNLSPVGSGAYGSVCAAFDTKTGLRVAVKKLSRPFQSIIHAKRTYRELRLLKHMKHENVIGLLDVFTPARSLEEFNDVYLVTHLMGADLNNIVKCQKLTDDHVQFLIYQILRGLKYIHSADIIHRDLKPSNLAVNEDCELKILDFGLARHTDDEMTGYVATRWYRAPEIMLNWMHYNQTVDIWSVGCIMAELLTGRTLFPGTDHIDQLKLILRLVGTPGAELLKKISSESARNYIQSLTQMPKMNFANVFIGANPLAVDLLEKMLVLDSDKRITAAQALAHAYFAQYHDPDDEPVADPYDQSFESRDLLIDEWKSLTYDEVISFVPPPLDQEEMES

One series concerns the target T1, human active recombinant p38α-6His tagged (Homo sapiens, UniProt Q16539).
T1 construct: 6His
The experiment in a line: p38 Alpha Enzyme Assay (AlphaScreen, biotinylated-ATF2 substrate). It counts as biochemical. The settings on record: pre-incubated 4 hours at 37° C., reaction initiated with ATP; 0.5 nM enzyme; read-out: p38 pIC50 (converted).
Consider `Cc1ccc(C(=O)NC2CC2)cc1-c1ccc2c(=O)n(Cc3ccccc3)cc(C(=O)NCCN(C)C)c2c1` [Example 47, 2-Benzyl-6-(5-(cyclopropylcarbamoyl)-2-methylphenyl)-N-(2-(dimethylamino)ethyl)-1-oxo-1,2-dihydroisoquinoline-4-carboxamide], for which the IC50 is 1.26 nM.

Regarding `Cc1ccc(C(=O)NC2CC2)cc1-c1ccc2c(=O)n(CC3CC3)cc(C(=O)N3CCC(N(C)C)CC3)c2c1` [Example 45, N-Cyclopropyl-3-(2-(cyclopropylmethyl)-(4-(dimethylamino)piperidine-1-carbonyl)-1-oxo-1,2-dihydroisoquinolin-6-yl)-4-methylbenzamide], the IC50 is 2.51 nM.

For `Cc1ccc(C(=O)NC2CC2)cc1-c1ccc2c(=O)n(Cc3ccc(C(=O)N(C)C)cc3)cc(CN3CCCN(C)CC3)c2c1` [Example 105, N-Cyclopropyl-3-(2-(4-(dimethylcarbamoyl)benzyl)-4-((4-methyl-1,4-diazepan-1-yl)methyl)-1-oxo-1,2-dihydroisoquinolin-6-yl)-4-methylbenzamide], the IC50 was 0.158 nM.

On to `Cc1ccc(C(=O)NC2CC2)cc1-c1ccc2c(=O)n(CC3CCNCC3)ccc2c1` [Example 125, N-Cyclopropyl-4-methyl-3-(1-oxo-2-piperidin-4-ylmethyl-1,2-dihydro-isoquinolin-6-yl)-benzamide], for which the IC50 is 63.1 nM.

Consider `Cc1c(F)cc(C(=O)NC2CC2)cc1-c1ccc2c(=O)n(CC3CC3)cc(CN3CCN[C@@H](CO)C3)c2c1` [Example 85, (R)—N-Cyclopropyl-3-(2-(cyclopropylmethyl)-4-((3-(hydroxymethyl)piperazin-1-yl)methyl)-1-oxo-1,2-dihydroisoquinolin-6-yl)-5-fluoro-4-methylbenzamide], for which the IC50 was 0.0398 nM.

As for `Cc1ccc(C(=O)NC2CC2)cc1-c1ccc2c(=O)n(CC3CC3)cc(CNC3CCN(C)CC3)c2c1` [Example 65, N-Cyclopropyl-3-(2-(cyclopropylmethyl)-4-((1-methylpiperidin-4-ylamino)methyl)-1-oxo-1,2-dihydroisoquinolin-6-yl)-4-methylbenzamide], the IC50 was 7.94 nM.

In the case of `Cc1c(F)cc(C(=O)NC2CC2)cc1-c1ccc2c(=O)n(CC3CC3)cc(CN3C[C@@H]4C[C@H]3CN4)c2c1` [Example 111, 3-(4-((1S,4S)-2,5-Diazabicyclo[2.2.1]heptan-2-ylmethyl)-2-(cyclopropylmethyl)-1-oxo-1,2-dihydroisoquinolin-6-yl)-N-cyclopropyl-5-fluoro-4-methylbenzamide], the IC50 was 0.1 nM.

As to `Cc1ccc(C(=O)NC2CC2)cc1-c1ccc2c(=O)n(CC3CC3)cc(CN3CCN[C@@H](C)C3)c2c1` [Example 63, (S)—N-Cyclopropyl-3-(2-(cyclopropylmethyl)-4-((3-methylpiperazin-1-yl)methyl)-1-oxo-1,2-dihydroisoquinolin-6-yl)-4-methylbenzamide], the IC50 was 1 nM.

For `Cc1ccc(C(=O)NC2CC2)cc1-c1ccc2c(=O)n(Cc3ccc(OCCN4CCCC4)nc3)ccc2c1` [Example 31, N-Cyclopropyl-4-methyl-3-(1-oxo-2-((6-(2-(pyrrolidin-1-yl)ethoxy)pyridin-3-yl)methyl)-1,2-dihydroisoquinolin-6-yl)benzamide], the IC50 is 0.631 nM.

Test system in a further series: not listed separately
The series is described as follows: GVS (Dynamic Vapour Sorption) determination. The settings on record: at 80% RH (±0.2%); crystalline polymorph A. It counts as physicochemical. The method, then:
GVS profiles were measured using a Dynamic Vapour Sorption DVS-1 instrument. The solid sample ca. 1-5 mg was placed into a glass vessel and the weight of the sample was recorded during a dual cycle step method (40 to 90 to 0 to 90 to 0% relative humidity (RH), in steps of 10% RH).
`Cc1ccc(C(=O)NC2CC2)cc1-c1ccc2c(=O)n(Cc3ccccc3)cc(C(=O)NCCN(C)C)c2c1` [Example 47, 2-Benzyl-6-(5-(cyclopropylcarbamoyl)-2-methylphenyl)-N-(2-(dimethylamino)ethyl)-1-oxo-1,2-dihydroisoquinoline-4-carboxamide] registered a GVS weight increase of 0.9 % w/w.
